In PubChem BioAssay (NCI):
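96-well plates; 48 h exposure; 5 concentrations. Endpoints by linear interpolation between flanking doses. Not reached: highest tested concentration assigned. Abbreviation: GI50, concentration required for 50% inhibition of growth. TGI is the concentration that stops growth completely.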

What was measured:
Assay in all cases: growth of human tumour cells (NCI), 48 h
[1] = tested on: HOP-92 NSCLC
[2] = tested on: OVCAR-8 ovarian
[3] = tested on: OVCAR-3 ovarian
[4] = tested on: RPMI-8226 leukemia
[5] = tested on: LOX IMVI melanoma
[6] = tested on: EKVX NSCLC
[7] = tested on: RXF 393 renal
[8] = tested on: IGROV1 ovarian
[9] = tested on: SF-268 CNS
[10] = tested on: SW-620 colon

Row | SMILES | GI50 [1] [µM] | TGI [1] [µM] | GI50 [2] [µM] | TGI [2] [µM] | GI50 [3] [µM] | TGI [3] [µM] | GI50 [4] [µM] | TGI [4] [µM] | GI50 [5] [µM] | TGI [5] [µM] | GI50 [6] [µM] | TGI [6] [µM] | GI50 [7] [µM] | TGI [7] [µM] | GI50 [8] [µM] | TGI [8] [µM] | GI50 [9] [µM] | TGI [9] [µM] | GI50 [10] [µM] | TGI [10] [µM]
1 | COc1ccc(/C=C2\COc3ccc(O)c(O)c3C2=O)cc1OC | 2.18 | 5.91 | 1.68 | 15.7 | 0.539 | 3.31 | 0.336 | 1.51 | 1.12 | 2.54 | 2.76 | 18.8 | 1.44 | 2.91 | 0.84 | 3.53 | 1.7 | 5.64 |  | 
2 | Cc1c(Cl)cccc1NC(=O)c1sc2nc3c(cc2c1N)C(=O)CCC3 | 0.0479 | 24.1 | 0.272 | > 55.6 | 0.048 | 0.53 | 0.234 | > 55.4 | 0.0782 | > 100 |  |  | 0.037 | 1.11 | 0.153 | > 100 | 0.206 | > 100 | 0.0484 | > 100
3 | COC(=O)c1ccc(C(=O)OC)c2nc3cc(Cl)ccc3nc12 |  | > 100 |  | > 100 |  | > 100 |  | > 100 |  | > 100 |  | > 100 |  |  |  | > 100 |  | > 100 |  | > 100
4 | COc1c(-c2ccc3c(c2)OCO3)oc2cc(O)cc(O)c2c1=O |  | > 100 |  | > 100 |  |  |  | > 100 |  | > 100 |  | > 100 |  | 42.5 |  | > 100 |  | > 100 |  | 
5 | Nn1c(-c2cccc(Cl)c2)nc2ccccc2c1=O |  | > 100 |  | > 100 |  | > 100 |  | > 100 |  |  |  | > 100 |  |  |  | > 100 |  | > 100 |  | > 100
6 | Cn1c2c(c3ccccc3c1=O)C(=O)c1ccccc1-2 |  | > 100 |  | > 100 |  | > 100 |  | > 100 |  | > 100 |  | > 100 |  |  |  | > 100 |  | > 100 |  | > 100
7 | CCn1cc(C(=O)N/N=C/c2cccs2)c(=O)c2cc(F)c(N3CCNC(C)C3)c(F)c21 (stereo not drawn) | 1.09 | 2.38 |  |  | 1.8 | 3.35 |  |  |  |  | 1.47 | 2.93 | 1.47 | 3 |  |  | 1.73 | 3.44 | 1.71 | 3.17
8 | CC(C)(C)[Si](C)(C)OCCc1ccccc1C1CC2(S(=O)(=O)c3ccccc3)ON1CC2S(=O)(=O)c1ccccc1 (stereo not drawn) |  |  |  | > 100 |  | > 100 |  |  |  |  |  | > 100 |  | > 100 |  | > 100 |  | > 100 |  | > 100
9 | O=C1C(Cl)=C(Nc2cc(Cl)ccc2O)C(=O)N1Cc1ccccc1 |  |  | 17.5 | 36.4 | 18.6 | 35.8 | 11.9 | 39.5 | 16.7 | 32.2 | 21.3 | 50.5 | 14.1 | 30.3 | 5.53 | 26.4 | 17.5 | 35 | 19 | 38.5
10 | Cc1cc(Cl)ccc1N=C1NC(=O)C(CC(=O)Nc2cccc(C)c2C)S1 (stereo not drawn) |  | 26.5 |  | 75.9 |  | > 100 |  | 64.2 |  | 80.6 |  | > 100 |  |  |  | > 100 |  | > 100 |  | > 100
11 | CN(C)N=Nc1cccc(C(N)=O)c1 |  | > 100 |  | > 100 |  | > 100 |  | > 100 |  |  |  | > 100 |  | > 100 |  | > 100 |  | > 100 |  | > 100
12 | O=[N+]([O-])c1ccc(C2SCc3nc4ccccc4n32)cc1 (stereo not drawn) |  | 91.3 |  | > 100 |  |  |  |  |  | > 100 |  | > 100 |  | > 100 |  | 60.2 |  | > 100 |  | > 100
13 | COc1cc([C@@H]2OC(=O)C3C2C(=O)O[C@H]3c2ccc(O)c(OC)c2)ccc1O (stereo partly drawn) |  | > 100 |  | > 100 |  | > 100 |  | > 100 |  | > 100 |  |  |  | > 100 |  | > 100 |  | > 100 |  | > 100
14 | O=C(N=Nc1c(Cl)c(O)c2ccccc2c1O)C(=O)Nc1cccc(C(F)(F)F)c1 | 1.98 | 15.6 | 3.39 | 13.6 | 1.77 | 4.64 | 3.49 | 15.6 | 1.97 | 5.09 |  |  | 5.81 | 18.8 | 2.99 | 21.4 | 3.37 | 13 | 3.24 | 15.6
15 | CCC[n+]1cc2cc3c(cc2c2c1-c1cc4c(cc1C2)OCO4)OCO3 (tested in a mixture with another compound) | 0.683 | 4.07 | 0.575 | 12.2 | 0.894 | 4.81 | 0.545 | 5.5 | 3.22 | 14.3 | 2.18 | 19.2 |  |  |  | 7.81 | 0.0649 | 1.95 | 0.733 | 12.8
16 | COc1cc2c3c(n([C@@H]4CCOC4)c(=O)c2cc1OC)-c1cc2c(cc1C3=O)OCO2 |  |  | 0.0132 | > 100 |  |  | 0.0127 | > 100 |  |  |  |  |  |  | 0.0537 | > 100 | < 0.01 | > 100 | < 0.01 | > 100
17 | COC(=O)C12C34C=CC5(CCC6(C=CC1(CC3)O6)C52C(=O)OC)O4 (stereo not drawn) |  | > 100 |  | > 100 |  |  |  |  |  | > 100 |  | > 100 |  | > 100 |  | > 100 |  | > 100 |  | > 100
18 | O=C(NCc1ccco1)C1CCN(S(=O)(=O)c2ccc(Cl)cc2)CC1 | > 100 | > 100 | > 100 | > 100 | > 100 | > 100 | 94.9 | > 100 | 36.3 | > 100 |  |  | > 100 | > 100 | > 100 | > 100 | > 100 | > 100 | > 100 | > 100
